Test results from patent US5777190A (priority 1997, dated 1998).

Assays:
[1] = target: ferredoxin NADP oxidoreductase (FNR, EC 1.18.1.2) from spinach (Spinacia oleracea, UniProt P00455)
rats = conditions: rat, in vivo; cited from earlier work

Sequence of ferredoxin NADP oxidoreductase (FNR, EC 1.18.1.2) from spinach (P00455 56-369): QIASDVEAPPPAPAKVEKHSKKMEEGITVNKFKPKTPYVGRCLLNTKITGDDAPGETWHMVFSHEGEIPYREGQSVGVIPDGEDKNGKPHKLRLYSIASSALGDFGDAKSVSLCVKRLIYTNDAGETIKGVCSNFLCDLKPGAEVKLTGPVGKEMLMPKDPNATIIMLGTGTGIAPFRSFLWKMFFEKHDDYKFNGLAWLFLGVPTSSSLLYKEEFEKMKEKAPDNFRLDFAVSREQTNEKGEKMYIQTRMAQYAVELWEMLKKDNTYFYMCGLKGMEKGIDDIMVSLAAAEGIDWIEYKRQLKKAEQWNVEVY

## O=[N+]([O-])c1ccccc1 [nitrobenzene]
[1]
  reduction by FNR under aerobic conditions: not reduced
  stoichiometry of transformation by FNR: One mole of PHA is formed for every mole of nitrobenzene
[1]; pH 8.5
  reduction by FNR under nitrogen (product formed): transformation of nitrobenzene to PHA by FNR
rats
  LD50: 640 mg/kg
